Data on 3 molecules can be found in paper PMC9762789, “Chromone-based monoamine oxidase B inhibitor with potential iron-chelating activity for the treatment of Alzheimer’s disease” (Journal of Enzyme Inhibition and Medicinal Chemistry, 2022).

The target of one data set is T1, Human MAO-A (Homo sapiens, UniProt P21397).
T1 construct: purchased Sigma-Aldrich
T1 sequence (P21397 1-527): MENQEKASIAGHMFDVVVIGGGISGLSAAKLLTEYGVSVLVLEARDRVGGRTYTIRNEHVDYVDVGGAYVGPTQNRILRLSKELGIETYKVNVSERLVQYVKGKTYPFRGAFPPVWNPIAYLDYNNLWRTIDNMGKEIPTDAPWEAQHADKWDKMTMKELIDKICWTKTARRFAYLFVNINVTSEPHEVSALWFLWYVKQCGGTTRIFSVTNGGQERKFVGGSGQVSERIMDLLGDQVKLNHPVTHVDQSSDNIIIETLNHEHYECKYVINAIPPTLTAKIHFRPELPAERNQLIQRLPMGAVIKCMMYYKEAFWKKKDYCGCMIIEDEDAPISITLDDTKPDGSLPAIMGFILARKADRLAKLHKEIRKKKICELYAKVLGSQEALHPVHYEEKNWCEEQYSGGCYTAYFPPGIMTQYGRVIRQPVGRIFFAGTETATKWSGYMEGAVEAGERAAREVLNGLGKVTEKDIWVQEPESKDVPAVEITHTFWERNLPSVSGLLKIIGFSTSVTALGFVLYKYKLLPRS
As to the kind of experiment: hMAO-A inhibition assay. Format: biochemical. The method, then: Further, the inhibitory activity of compounds against hMAO-A isoform was tested and calculated as a selectivity index [Selectivity index (SI): IC50 (hMAO-A)/IC50 (hMAO-B)].
(§1) The reagents and enzymes (Human MAO-B and Human MAO-A) applied in this experiment were purchased from Sigma-Aldrich. According to the manuals, all components (substrate solution and enzyme solution) are diluted and placed aside for use. The detailed process has been mentioned in our early work[34].

Another data set has as its target T2, MAO-B (Homo sapiens, UniProt P27338).
T2 construct: purchased Sigma-Aldrich
T2 sequence (P27338 1-520): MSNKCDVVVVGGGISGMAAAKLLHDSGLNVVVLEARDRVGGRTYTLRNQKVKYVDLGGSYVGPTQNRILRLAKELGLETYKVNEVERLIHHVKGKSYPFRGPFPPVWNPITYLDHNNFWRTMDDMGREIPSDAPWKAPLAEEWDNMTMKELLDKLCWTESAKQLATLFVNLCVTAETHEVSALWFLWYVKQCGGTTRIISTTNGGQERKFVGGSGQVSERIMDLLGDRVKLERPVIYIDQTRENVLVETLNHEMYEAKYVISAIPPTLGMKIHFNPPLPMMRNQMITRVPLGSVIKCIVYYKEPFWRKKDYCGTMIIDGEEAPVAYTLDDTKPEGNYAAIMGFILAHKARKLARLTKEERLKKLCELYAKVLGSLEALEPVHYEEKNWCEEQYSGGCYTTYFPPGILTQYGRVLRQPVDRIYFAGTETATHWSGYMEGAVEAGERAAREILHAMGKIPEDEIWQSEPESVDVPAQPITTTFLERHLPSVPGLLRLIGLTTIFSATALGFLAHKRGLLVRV
As to the kind of experiment: hMAO-B inhibition assay. Particulars: for inhibition at 0.1 µM: read-out: Inhibitory rate (%, 100 nM). The format is biochemical. The method, then: as §1

Data set [1] is described as follows: iron (III) affinity constants and pFe3+ by spectrophotometric titration. The format is physicochemical.
Data set [2] is described as follows: pKa determination by automated spectrophotometric titration. The format is physicochemical. The note with it: 0.1 M KCl solution.
The nature of another data set: PAMPA-BBB assay. The format is in vitro ADME. The note with it: PAMPA-BBB, mean ± SEM of eight independent experiments. The text has this: Good blood–brain barrier (BBB) permeability is the key to exerting drug efficacy in the treatment of central nervous system diseases. To evaluate whether the target compound could penetrate BBB, a parallel artificial membrane permeability assay (PAMPA) was used to predict[32]^,[33]. […] Therefore, due to its potential ability to cross the BBB, compound 17d was selected for subsequent assay.
PAMPA was used to predict the BBB permeability of the screened compound. The detailed process has been mentioned in our early work[32]^,[33].
In general terms: The PAMPA barrier holds no transporters, so it reflects passive diffusion.

In data set [3] the test system is scopolamine-induced cognitive impairment mice model. The experiment in a line: Morris water maze test, scopolamine-induced memory impairment. The format is in vivo, ICR mice. More on the design: Distance to first entry: unit not given here. The note with it: 15 mg/kg, scopolamine 15 mg/kg, ICR mice, mean ± SEM, n = 15; for Latency to first entry: in s (unit assumed). The text has this: To further explore the in vivo anti-AD effect of compound 17d on the scopolamine-induced cognitive impairment mice model, the Morris Water Maze experiment was selected; data are shown in Figure 7 and Table 5.
Figure 7.
Adult female ICR mice (weight 20–25 g) were obtained from the Zhejiang Academy of Medical Sciences (Hangzhou, China). Scopolamine hydrobromide and Pargyline were purchased from Aladdin Reagents. Memantine was purchased from Energy Chemical. All experiments were approved by the Laboratory Animals Ethical Committee of the Zhejiang University of Technology (No. 20211210103). In this test, mice were prepared as clarified and clear injections, consisting of 20% (2-Hydroxypropyl)-β-cyclodextrin, 10% DMSO, and PBS. […] Mice were administered at a frequency of once a day over 15 d with a fixed dosing schedule. The body weight of mice was measured during the experiment.
After eliminating environmental stress, the behavioural test was performed over the next five days. The mice were trained to find the platform (10 cm diameter) in the circular light-avoidance pool (120 cm diameter and 60 cm height) filled with water (40 cm, depth), which was described in detail in our previous study. All mice received at least one training session daily in four quadrants for four consecutive days before the probe trial of finding the platform within 120 s. Recordings were made with SMART version 3.0 (Panlab, Spain) and processed by Graphpad Prism version 6 software (Graphpad Software Inc., La Jolla, CA, USA).

[4] abbreviates: DMSO: KCl (0.1 M) = 1:1.5 (v/v).

Read-outs that look alike come from different tables or passages of the source.

As usually defined, the IC50 is the concentration that gives 50% inhibition. Usually melting point stands for the temperature of the solid-liquid transition. `Cc1c(O)c(=O)ccn1CCNCc1coc2ccccc2c1=O` [Compound 17a, 3-Hydroxy-2-methyl-1–(2-(((4-oxo-4H-chromen-3-yl)methyl)amino)ethyl)pyridin-4(1H)-one] showed a melting point of 248 to 250 °C. This molecule displayed an IC50 on Human MAO-A of 2.06 ± 0.0354 µM. Further, at MAO-B, the 50% inhibitory concentration (IC50) is 0.0673 ± 0.0019 µM and the “SI: hMAO-B selectivity index = IC50 (hMAO-A)/IC50 (hMAO-B)” value was determined as 30.7. The inhibition at 0.1 µM at MAO-B (hMAO-B, 100 nM) was 53.1 ± 1.6%. Besides, in data set [1] (setting [4]), the “Log β1” value is given as 13.46, the “Log β2” value was found to be 25.19 and the “Log β3” value was determined as 35.28. Moreover, the “pFe^3+” value in data set [1] (calculated from Log β values obtained in DMSO: KCl (0.1 M) = 1:1.5 (v/v)) is given as 18.62. Besides, the pKa in data set [2] (read-out: pKa1) is 2.81. Further, the pKa in data set [2] (read-out: pKa2) was 9.8. The “Pe ± SEM” value in “PAMPA-BBB assay” was 1.22 ± 0.22 *10^−6 cm/s. In the data set “PAMPA-BBB assay” (read-out: Pe ± SEM), the Papp worked out at 12.2 ± 2.2 nm/s.

Consider `CC12CC3CC(C)(C1)CC(N)(C3)C2` [Memantine], for which the Entries to target in data set [3] and in data set [3] (listed as memantine) was 4.0 ± 0.3 throughout. In addition, the “Latency to first entry” value in data set [3] and in data set [3] (listed as memantine) was 13 ± 1 throughout.

For `C#CCN(C)Cc1ccccc1` [Pargyline], the inhibition at 0.1 µM at MAO-B is 48.9 ± 1.7%. Further, in data set [3], the “Distance to first entry” value came to 2.6 ± 0.3, the Entries to target was determined as 5.3 ± 0.9 and the “Latency to first entry” value is given as 11 ± 1. Moreover, in data set [3] (listed as pargyline), the “Distance to first entry” value is listed as 2.6 ± 0.3, the Entries to target was found to be 5.3 ± 0.9 and the “Latency to first entry” value is on record as 11 ± 1.
